Earlier results, collected in US20030170332A1, “Flavonoid extract” (Enzo Nutraceuticals Limited., priority 2001, published 2003).

What was measured:
[1] = test system: carbonyl levels of immunoglobulin
DNA damage = conditions: for Protection against DNA damage: in vivo (Duthie et al. 1997; Sierens et al. 2001)

SMILES | Effect on protein oxidation of immunoglobulin ([1]; 5 weeks supplementation, 400 mg/day) | Carbonyl levels of immunoglobulin ([1]; 10 and 15 weeks supplementation, subjects with low baseline ascorbate, not in those with normal base line ascorbate) | Protection against DNA damage (DNA damage) | DNA protection on increasing intake in the diet (DNA damage; in vivo (Beatty et al. 2000))
O=C1O[C@H]([C@@H](O)CO)C(O)=C1O [vitamin C] | no significant effect | significantly reduced |  | 
O=c1c(O)c(-c2cc(O)c(O)c(O)c2)oc2cc(O)cc(O)c12 [myricetin] |  |  | did protect against DNA damage | 
Oc1ccc([C@H]2COc3cc(O)ccc3C2)cc1 [equol] |  |  | did protect against DNA damage | 
O=c1c(-c2ccc(O)cc2)coc2cc(O)cc(O)c12 [genistein] |  |  | did protect against DNA damage | 
O=c1c(O)c(-c2ccc(O)c(O)c2)oc2cc(O)cc(O)c12 [quercetin] |  |  | did protect against DNA damage | did not result in increased DNA protection
